Results on five compounds are retold here after paper PMC6326535, “Total Synthesis of Xanthoangelol B and Its Various Fragments: Toward Inhibition of Virulence Factor Production of Staphylococcus aureus” (Journal of Medicinal Chemistry, 2018).

The test system of one series is Gram-positive bacteria. The note with it: cited from earlier work.
A further series relates to SaeRS TCS. In words: microbe, parasite or virus in culture. The format is cell-based, Staphylococcus aureus USA300. The note with it: for IC50 / IC90: Staphylococcus aureus; for IC50: USA300, 8 h, read-out: IC50 against the SaeRS GFP reporter; for IC90: read-out: IC90 for the SaeRS GFP reporter; for inhibition of the SaeRS TCS: at 20 μM.
In series [1] the test system is methicillin-resistant S. aureus USA300. Description: cells. The format is cell-based, Staphylococcus aureus.
Series [2] has as its system hla, aur, γ-hemolysin, staphylokinase, sarA. The format is cell-based, Staphylococcus aureus.
For series [3], the system named is HeLa cells. Description: LDH release cytotoxicity assay. Type of series: cell-based. The following applies: for IC50: Homo sapiens, HeLa, 72 h, read-out: IC50 for HeLa cell survival.
For series [4], the system named is S. aureus USA300. The format is in vivo, Galleria mellonella. The note with it: 72 h; for survival compared to the vehicle control: 5 × 10^6 CFU.
In series [5] the test system is S. aureus USA300. The format is in vivo, Galleria mellonella. The following applies: for bacterial burden compared to the vehicle control: dose of approximately 1 mg/kg.
A further series deals with saeS knockout S. aureus. The format is in vivo, Galleria mellonella. The following applies: for reduction in CFU compared to the wild type infection group: saeS knockout infection, after 72 h.
In series [6] the target is minimal kinase domain of SaeS (Staphylococcus aureus, UniProt Q840P7). Description: biochemical.
minimal kinase domain of SaeS, sequence (Q840P7 118-351): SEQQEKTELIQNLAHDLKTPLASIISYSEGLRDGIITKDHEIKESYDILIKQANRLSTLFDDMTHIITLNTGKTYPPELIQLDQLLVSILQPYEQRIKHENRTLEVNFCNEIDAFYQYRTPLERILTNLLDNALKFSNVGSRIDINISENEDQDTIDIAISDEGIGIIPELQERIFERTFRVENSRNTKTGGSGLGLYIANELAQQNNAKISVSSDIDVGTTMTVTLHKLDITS
In series [7] the target is SaeS phosphotransferase (PT) activity (Staphylococcus aureus, UniProt Q840P7). The format is biochemical. The following applies: radioactively phosphorylated SaeS in the presence of SaeR.
SaeS phosphotransferase (PT) activity, sequence (Q840P7 118-351): as above
The next series has as its target AgrC (Staphylococcus aureus, UniProt O07911). Type of series: biochemical. The note with it: for IC50: 5 μM protein, autokinase activity.
Series [8] concerns S. aureus USA300. The following applies: for growth of S. aureus: at (up to) 64 μM, up to 20 h; for bacterial growth: 8 h.
Description: Figure 1 Various concentrations of compounds were used to treat the USA300-Phlam GFP strain, and GFP expression was analyzed at 8 h. […] All the experiments were performed in triplicates, and significance was compared with control (no treatment) using one-way ANOVA.
56 at the concentration in the range from 2 μM to 64 μM. The cell density w as m onitored as the
optical density at 600 nm.
B act eri al growt h for 8 h i n t he presence of PM-56; C, B acterial growth for 20 h in the presence of
xant hoangel ol B 1; D, B act eri al growt h for 20 hours i n t he presence of PM-56. All the experi m ents
were perform ed in triplicates.
In series [9] the test system is HeLa cells.
The next series has as its target kinase domain of SaeS (Staphylococcus aureus, UniProt Q840P7). In words: biochemical.
The target of series [10] is minimal kinase domain of SaeS / MBP-SaeS (Staphylococcus aureus, UniProt Q840P7). Type of series: binding. The note with it: 1.0 mM compound, 0.1 mM SaeS or 30 μM MBP-SaeS.
minimal kinase domain of SaeS / MBP-SaeS, sequence (Q840P7 118-351): as above
Details of series [11]: method as in PMID 22452965. The following applies: mice, single dose study; cited from earlier work.
Setting [12] is: Staphylococcus aureus, USA300, Erythrocyte, 8 h, read-out: IC50 for the inhibition of erythrocyte hemolysis, human RBCs, 8 h incubation of USA300 with compound.
The mark [13] stands for this setting: read-out: IC50 for the inhibition of erythrocyte hemolysis, human RBCs, 8 h incubation of USA300 with compound.

Where two headings read alike, the source gives them in different places.

For orientation: IC50 means the midpoint of a concentration-inhibition curve. For orientation: IC90 means the concentration needed for an effect of 90%. As a reminder, the Kd is the constant that tells how readily two partners part at equilibrium. Low readings indicate higher affinity, high ones lower affinity.

AgrC, sequence (O07911 206-430 limits assumed): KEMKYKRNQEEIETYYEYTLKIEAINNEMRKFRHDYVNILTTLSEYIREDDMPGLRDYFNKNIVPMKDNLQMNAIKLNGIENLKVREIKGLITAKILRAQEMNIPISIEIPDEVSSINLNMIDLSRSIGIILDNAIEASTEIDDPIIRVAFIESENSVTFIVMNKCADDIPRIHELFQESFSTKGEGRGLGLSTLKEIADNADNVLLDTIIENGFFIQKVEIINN
kinase domain of SaeS, sequence (Q840P7 118-351): as the sequence (Q840P7 118-351) above

4-hydroxyderricin: in the series with Gram-positive bacteria, the “antibacterial activity against Gram-positive bacteria” value is reported as “shown to have an antibacterial activity”.

On to `C=C(C)C(O)CC/C(C)=C/Cc1c(O)ccc(C(=O)/C=C/c2ccc(O)cc2)c1O` (centres unmarked) [Compound 1, Xanthoangelol B], for which the “inhibitory activity against SaeRS” value with SaeRS TCS was “excellent inhibitory activity”. In addition, the IC50 in the series with SaeRS TCS is 2.1 µM; in [1] (setting [12]), 4.62 µM; in series [1] (setting [13]) it was 4.6 µM; in the series with HeLa cells [3], 19.7 µM; in series [6] it was 220 µM; on AgrC, 339 µM. Moreover, the IC90 in the series with SaeRS TCS was 8 µM. The protection from hemolysis result in [1] (at 4 μM) is given as “visible protection”; in series [1] (at 8 μM), “comparable level of protection to that of saeS knockout mutants”. Besides, in series [2], the “level of sarA transcription” value is “not significantly affected”. For the same compound, in the series on HeLa cells [3], the “cytotoxicity IC50 relative to IC50 for the GFP-reporter inhibition” value is given as 10 fold. Also, the “survival compared to the vehicle control” value in the series with S. aureus USA300 [4] (2.0 mg/kg every 12 h) worked out at 3.5 fold. For the same compound, the survival in the series with S. aureus USA300 [4] (3.1 mg/kg every 12 h) was 90%; in the series with S. aureus USA300 [4] (4.1 mg/kg every 12 h), “complete survival”. The “decline of bacterial burden” value in the series on S. aureus USA300 [5] (4.1 mg/kg) is 1.72 log10 CFU/worm. The “bacterial burden compared to the vehicle control” value with S. aureus USA300 [5] is given as “sharp decrease”. Moreover, the “survival rate of G. mellonella infected with the knockout strain” value with saeS knockout S. aureus (2.042 mg/kg body weight every 12 h for 72 h) was 70%. Besides, the “reduction in CFU compared to the wild type infection group” value in the series with saeS knockout S. aureus (2.042 mg/kg) is listed as 76.8%. Further, the “inhibition of phosphotransferase (PT) activity” value in series [7] is “no inhibition was observed”. Further, the “lower activity for AgrC compared to that for SaeS” value at AgrC is given as 1.5 fold. In addition, the “growth of S. aureus” value with S. aureus USA300 [8] is “severely inhibited”. Also, in the series on S. aureus USA300 [8] (at up to 8 μM), the bacterial growth entry was “did not disrupt bacterial growth”. For the same compound, the “concentration from which growth inhibition started” value in the series with S. aureus USA300 [8] (growth followed up to 20 h) is at least 16 µM. Also, the “visible toxicity to HeLa cells” value in the series with HeLa cells [9] was “did not produce substantially visible toxicity”. This compound also came in with a dissociation constant (Kd) at kinase domain of SaeS of 40 µM.

For the compound `C=C(C)C(O)CC/C(C)=C/Cc1c(O)ccc(C(=O)CC(O)c2ccc(O)cc2)c1O` (centres unmarked) [PM-56, 1-(2,4-Dihydroxy-3-(6-hydroxy-3,7-dimethylocta-2,7-dien-1-yl)phenyl)-3-hydroxy-3-(4-hydroxyphenyl)propan-1-one], the “inhibitory activity against SaeRS” value in the series with SaeRS TCS is “excellent inhibitory activity”. Moreover, the IC50 with SaeRS TCS was 4.3 µM; in [1] (setting [12]), 3.97 µM; in [1] (setting [13]) it was 4 µM; in the series on HeLa cells [3], 28.9 µM; in series [6], 160 µM; against AgrC, 140 µM. Moreover, in the series on SaeRS TCS, the concentration for an effect of 90% (IC90) stood at 10 µM. The protection from hemolysis entry in series [1] (at 4 μM) is listed as “visible protection”; in series [1] (at 8 μM) it was “comparable level of protection to that of saeS knockout mutants”. Also, the “level of sarA transcription” value in series [2] is reported as “not significantly affected”. Moreover, the “cytotoxicity IC50 relative to IC50 for the GFP-reporter inhibition” value with HeLa cells [3] is recorded as 7 fold. The “survival compared to the vehicle control” value with S. aureus USA300 [4] (2.1 mg/kg every 12 h) was 3.5 fold. For the same compound, the survival with S. aureus USA300 [4] (3.2 mg/kg every 12 h) is on record as 90%; in the series on S. aureus USA300 [4] (4.3 mg/kg every 12 h), “complete survival”. Besides, the “decline of bacterial burden” value with S. aureus USA300 [5] (4.3 mg/kg) is 1.84 log10 CFU/worm. Besides, the “bacterial burden compared to the vehicle control” value in the series with S. aureus USA300 [5] is “sharp decrease”. Also, the “survival rate of G. mellonella infected with the knockout strain” value in the series on saeS knockout S. aureus (2.131 mg/kg body weight every 12 h for 72 h) is on record as 90%. The “reduction in CFU compared to the wild type infection group” value with saeS knockout S. aureus (2.131 mg/kg) is 83.3%. In addition, in [6], the “higher activity than 1 for SaeS” value stood at 1.4 fold. Moreover, the “inhibition of phosphotransferase (PT) activity” value in series [7] is “no inhibition was observed”. Besides, at AgrC, the “higher activity than 1 for AgrC” value worked out at 2.4 fold. The “binding to SaeS by 1D CPMG and 1D STD NMR” value in series [10] was “specifically binds to SaeS”. Moreover, the “growth of S. aureus” value in the series with S. aureus USA300 [8] is listed as “comparable growth to the control”. For the same compound, the bacterial growth result in the series with S. aureus USA300 [8] (at up to 16 μM) is recorded as “did not disrupt bacterial growth”. Besides, the “visible toxicity to HeLa cells” value in the series on HeLa cells [9] is on record as “did not produce substantially visible toxicity”. Binding on kinase domain of SaeS was characterised by a dissociation constant (Kd) of 6.8 µM.

`COc1ccc(C(=O)/C=C/c2ccc(O)cc2)c(O)c1C/C=C(\C)CCC=C(C)C` [xanthoangelol F, reference compound]: the “inhibition of the SaeRS TCS” value in the series with SaeRS TCS was “did not show inhibitory activity”.

Regarding `CC(C)=CCC/C(C)=C/Cc1c(O)ccc(C(=O)/C=C/c2ccc(O)cc2)c1O` [xanthoangelol], in the series on SaeRS TCS, the “inhibition of the SaeRS TCS” value is “did not show inhibitory activity”. In addition, in series [11], the “absorption and distribution after oral administration” value was “absorbed and distributed rapidly”; the absorption efficiency result is listed as “low”. Besides, in the series with Gram-positive bacteria, the “antibacterial activity against Gram-positive bacteria” value is given as “shown to have an antibacterial activity”.
